Reference: the supplement of paper PMC10949913

Assays:
Settings in all cases: 48 h
[1] = tested on: CU-ACC1; assay: AC50 viability; higher = less potent
In short: (§1)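 In 1,536-well plates, 500–1,000 cells/well of three adrenocortical carcinoma cell lines in 5 µL medium received 23 nL of each library compound across 11 concentrations. At 48 h, CellTiter-Glo was incubated for 15 minutes at room temperature and luminescence measured. Per-plate normalisation used vehicle and empty-well controls, and only inhibitory or non-responding curve classes were kept when fitting concentration-response curves for AC50 and area under the curve.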

[2] = tested on: CU-ACC2; assay: AC50 viability; higher = less potent
In short: as §1

[3] = tested on: NCI-H295R; assay: AC50 viability; higher = less potent
In short: as §1

[4] = tested on: CU-ACC1; assay: area under concentration-response curve (viability) (AUC (a.u.)); higher = less active
In short: as §1

[5] = tested on: CU-ACC2; assay: as above
In short: as §1

[6] = tested on: NCI-H295R; assay: as above
In short: as §1

Row | Compound | AC50 viability [1] [µM] | AC50 viability [2] [µM] | AC50 viability [3] [µM] | area under concentration-response curve [4] | area under concentration-response curve [5] | area under concentration-response curve [6]
1 | C[C@H](NC(=O)C(=O)Nc1ccccc1C(C)(C)C)C(=O)N[C@@H](CC(=O)O)C(=O)COc1c(F)c(F)cc(F)c1F | 1.66 | 0.661 | 1.05 | 328 | 235 | 203
2 | Cc1cc(Nc2cc(NC(=O)c3c(Cl)cccc3Cl)ccn2)nc(N)n1 | 11.8 | 5.9 | 13.2 | 457 | 522 | 439
3 | CN1CCN(C(=O)c2ccc3cc(CCNc4ncnc5ccc(C#N)cc45)ccc3c2)CC1 | 4.17 | 16.6 | 2.95 | 397 | 499 | 436
4 | COc1cc(N[S+](C)(=O)[O-])ccc1Nc1c2ccccc2nc2ccccc12 | 13.2 | 7.42 | 13.2 | 299 | 409 | 420
5 | CC(C)[C@@H](N(CCCN)C(=O)C1=CC=C(C)C=C1)C/2=C(\CC3=CC=CC=C3)C(=O)C4=C(O2)C=C(Cl)C=C4 | 13.2 | 26.3 | 2.35 | 448 | 565 | 359
6 | C[N]1C=C(C=N1)C2=CC=C3N=CC\4=C(N(C(=O)\C=C4)C5=CC6=C(CCN6C(=O)C=C)C=C5)C3=C2 | 0.407 | 0.723 | 0.723 | 349 | 433 | 399
7 | C=CC(=O)Nc1cccc(Oc2nc(Nc3ccc(N4CCN(C)CC4)cc3OC)ncc2Cl)c1 | 8.33 | 7.42 | 9.34 | 442 | 526 | 502
8 | COC(=O)Nc1cc(Nc2cc(NC3CC3)c3ncc(C#N)n3n2)c(Cl)c(N2CCN(C)CC2)c1 | 6.61 | 6.61 | 2.63 | 466 | 506 | 443
9 | C[C@@H]1CN(CC(=O)N2CC(C)(C)c3ncc(Cc4ccc(F)cc4)cc32)[C@@H](CN2CCOC[C@H]2C)CN1 | 18.6 | 1.32 | 20.9 | 449 | 451 | 462
10 | CCCCNc1ncc2c(-c3ccc(F)cc3)nn(C[C@H]3CC[C@H](N)CC3)c2n1 | 14.4 | 14.4 | 14.4 | 523 | 611 | 550
11 | COc1ccc(F)c(F)c1C(=O)c1cnc(NC2CCN([S+](C)(=O)[O-])CC2)nc1N | 2.35 | 1.48 | 4.68 | 409 | 364 | 435
12 | CCNC(=O)c1cc2c(-c3cc(OCCN4CCCC4)c(Cl)cc3Cl)nc(N)nc2s1 | 5.12 | 5.74 | 2.57 | 431 | 445 | 433
13 | Cc1ncc(-c2ccnc(Nc3ccc([S+](C)(=O)[O-])cc3)n2)n1C(C)C | 0.742 | 0.332 | 2.95 | 286 | 236 | 307
14 | Nc1ccc(/C=C/C(=O)NCc2cc3cc(-c4ccc(C(=O)N5CCC(F)(F)CC5)cc4)cc(-c4ccc(F)cc4)c3o2)cn1 | 2.09 | 2.35 | 3.32 | 340 | 447 | 458
15 | Cc1cc(-c2ccc(CC(=O)Nc3ccc(-c4cccnc4)cc3)cc2)ccn1 | 20.9 | 23.5 | 16.6 | 435 | 460 | 440
16 | Cc1n[nH]c2ccc(-c3cncc(OC[C@@H](N)Cc4c[nH]c5ccccc45)c3)cc12 | 1.66 | 2.09 | 2.95 | 318 | 360 | 351
17 | CC/1=C/C[C@]23O[C@@]2(C)CC[C@@H]4[C@H](OC(=O)C4=C)[C@@H]13 | 14.8 | 16.6 | 18.6 | 447 | 509 | 435
18 | Cc1ccc([N+](=O)[O-])cc1[S+](=O)([O-])N(C)/N=C/c1cnc2ccc(Br)cn12 | 0.417 | 0.166 | 0.417 | 226 | 332 | 346
19 | COc1cc2nccc(Oc3ccc(NC(=O)Nc4cc(C)on4)c(Cl)c3)c2cc1OC | 14.8 | 29.5 | 14.8 | 422 | 516 | 415
20 | CC(C)C[C@H](NC(=O)[C@H](CCc1ccccc1)NC(=O)CN1CCOCC1)C(=O)N[C@@H](Cc1ccccc1)C(=O)N[C@@H](CC(C)C)C(=O)[C@@]1(C)CO1 | 0.186 | 0.0235 | 0.166 | 302 | 256 | 359

Row | Compound | AC50 viability [1] [µM] | AC50 viability [2] [µM] | AC50 viability [3] [µM] | area under concentration-response curve [4] | area under concentration-response curve [5] | area under concentration-response curve [6]
21 | CCN1C(=O)\C(=C/C2=C(C)N=C(N)N=C12)C3=CC=N[NH]3 | 4.17 | 3.32 | 5.25 | 397 | 455 | 431
22 | COc1cc(-c2nn(C3CCC(N4CCN(C(C)=O)CC4)CC3)c3ncnc(N)c23)ccc1NC(=O)c1cc2ccccc2n1C (stereo not given) | 8.33 | 10.5 | 9.34 | 418 | 512 | 460
23 | COc1cccc2cc(-c3nc([C@H]4CC[C@H](C(=O)O)CC4)n4ncnc(N)c34)[nH]c12 | 4.17 | 10.5 | 5.9 | 454 | 466 | 492
24 | O=C(Nc1cc(C(F)(F)F)cc(C(F)(F)F)c1)c1cc(Cl)ccc1O | 2.63 | 1.86 | 2.95 | 429 | 493 | 463
25 | O=C1c2c(O)ccc(O)c2C(=O)c2c(NCCNCCO)ccc(NCCNCCO)c21 | 16.6 | 9.34 | 14.8 | 458 | 512 | 514
26 | NC[C@@](O)(c1ccc(Cl)cc1)c1ccc(-c2cn[nH]c2)cc1 | 7.42 | 14.8 | 8.33 | 463 | 529 | 485
27 | CNCCCOc1cc(F)c(-c2c(Cl)nc3ncnn3c2N[C@@H](C)C(F)(F)F)c(F)c1 | 5.25 | 10.5 | 0.148 | 456 | 403 | 397
28 | c1cc(Nc2cc(C3CC3)n[nH]2)nc(Nc2ccc3nc[nH]c3c2)n1 | 1.05 | 0.332 | 7.42 | 419 | 408 | 462
29 | Cc1ccc(NC(=O)c2ccc(CN3CCN(C)CC3)cc2)cc1Nc1nc(-c2cccnc2)cs1 | 23.5 | 23.5 | 18.6 | 503 | 586 | 547
30 | COc1ccc(-c2nc(N3CCOCC3)c3sc(CN(C)c4ncc(C(=O)NO)cn4)cc3n2)cn1 | 0.0417 | 0.186 | 0.059 | 211 | 281 | 285
31 | CC(C)NC(=O)COc1cccc(-c2nc(Nc3ccc4[nH]ncc4c3)c3ccccc3n2)c1 | 13.2 | 3.72 | 9.34 | 481 | 507 | 523
32 | CC/1=C(\O)C(=O)\C=C2/C1=C\C=C3/[C@@]2(C)CC[C@@]4(C)[C@@H]5C[C@@](C)(CC[C@]5(C)CC[C@]34C)C(O)=O | 13.2 | 6.61 | 23.5 | 474 | 515 | 447
33 | CC[C@H](CC#N)OC(=O)N[C@@H](C)c1cccc(NC(=O)Nc2ccc(-c3cnco3)c(OC)c2)c1 | 5.9 | 5.9 | 2.09 | 456 | 530 | 489
34 | NC1(C(=O)N[C@@H](CCO)c2ccc(Cl)cc2)CCN(c2ncnc3[nH]ccc23)CC1 | 3.72 | 18.6 | 5.9 | 432 | 515 | 463
35 | C=CC(=O)N1CC/C(=C\c2ccc(F)c([N+](=O)[O-])c2)C(=O)/C(=C/c2ccc(F)c([N+](=O)[O-])c2)C1 | 0.263 | 0.148 | 0.209 | 318 | 342 | 333
36 | Oc1ccc(-c2ccc(-c3cc(Nc4cccc(CNC5CC5)c4)[nH]n3)cc2)c(O)c1 | 14.8 | 10.5 | 18.6 | 498 | 556 | 531
37 | Cc1ccc(C(=O)Nc2cccc(C(F)(F)F)c2)cc1-c1ccc2nc(NCCN3CCOCC3)ncc2c1 | 10.5 | 18.6 | 18.6 | 481 | 576 | 546
38 | Cc1ccc([S+](=O)([O-])Nc2cc(C(F)(F)F)ccc2C(=O)Nc2nc(-c3ccccc3)cs2)cc1 | 10.5 | 8.33 | 8.33 | 436 | 499 | 479
39 | CN(C)C/C=C/C(=O)Nc1cc2c(Nc3ccc(F)c(Cl)c3)ncnc2cc1O[C@H]1CCOC1 | 4.68 | 0.661 | 1.32 | 231 | 238 | 232
40 | CC[C@@H]1C(=O)N(C)c2cnc(Nc3ccc(C(=O)NC4CCC(N5CCN(CC6CC6)CC5)CC4)cc3OC)nc2N1C(C)C (stereo not given in full) | 7.42 | 9.34 | 7.42 | 472 | 450 | 429
